Reference: paper PMC3433420 (PLoS ONE, 2012)
Residues, ends and D or L forms follow the SMILES beside them.

What was measured:
[1] = target: T1, PIK3R3-NC tandem SH2 domains (Homo sapiens, UniProt Q92569); test: FP saturation binding assay; settings: high-confidence ErbB interactions
T1 construct: the tandem protein was included in our analysis with all internal amino acids linking the domains; 6X His; thioredoxin; made in house; host or cells: E. coli BL21(DE3)pLysS
How it was run: (§1)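 Rhodamine-labeled phosphopeptides (10 nM final) titrated with SH2 domain protein (0.002–10 µM, 12 points) in 20 mM HEPES, 100 mM KCl, 0.1% Tween-20, 5 mM DTT, pH 7.8; 20 min, room temperature, dark. FP read at 530/555 nm; KD fitted by nonlinear regression after thioredoxin background correction and outlier removal.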

PTK6 SH2 domain = target: T2, PTK6 SH2 domain (Homo sapiens, UniProt Q13882); test: FP saturation binding assay; settings: high-confidence ErbB interactions
T2 construct: from the PTK6 SH2 domain; 6X His; thioredoxin; made in house; host or cells: E. coli BL21(DE3)pLysS
T2 sequence (Q13882 78-170 limits assumed): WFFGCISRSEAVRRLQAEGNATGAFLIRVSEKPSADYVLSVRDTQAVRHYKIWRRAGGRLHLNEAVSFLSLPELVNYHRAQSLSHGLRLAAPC
How it was run: as §1

LYN SH2 domain = target: T3, LYN SH2 domain (Homo sapiens, UniProt P07948); test: FP saturation binding assay; settings: high-confidence ErbB interactions
T3 construct: 93 SH2 and 2 PTB domain-containing constructs; 6X His; thioredoxin; made in house; host or cells: E. coli BL21(DE3)pLysS
T3 sequence (P07948 129-226 limits assumed): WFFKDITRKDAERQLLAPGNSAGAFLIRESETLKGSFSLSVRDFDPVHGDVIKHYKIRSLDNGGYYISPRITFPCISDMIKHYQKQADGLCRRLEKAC
How it was run: as §1

SH2 and PTB domains [2] = target: T4, SH2 and PTB domains (Homo sapiens, UniProt O60880); test: In-house protein microarrays (with or without 5 mM DTT), protein named per line; type: binding; settings: protein SH2D1A
T4 construct: thioredoxin; made in house; host or cells: BL21(DE3)pLysS E. coli
T4 sequence (O60880 1-128): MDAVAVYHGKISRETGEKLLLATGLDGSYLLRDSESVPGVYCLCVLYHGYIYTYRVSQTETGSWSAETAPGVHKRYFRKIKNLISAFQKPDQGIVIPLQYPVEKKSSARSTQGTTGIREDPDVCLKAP
How it was run: (§2)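 Recombinant domains (~40 µM) spotted in duplicate on aldehyde slides, quenched 1 h at room temperature in HEPES/KCl/Tween-20 buffer pH 7.8 with 5 mM DTT and 1% BSA, then probed with rhodamine-labeled peptide. Thioredoxin-subtracted mean fluorescence fitted for KD.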

SH2 and PTB domains [3] = target: T5, SH2 and PTB domains (Homo sapiens, UniProt O00459); test: as above; type: binding
T5 construct: thioredoxin; made in house; host or cells: BL21(DE3)pLysS E. coli
T5 sequence (O00459 whole entry, the tested form may be a part): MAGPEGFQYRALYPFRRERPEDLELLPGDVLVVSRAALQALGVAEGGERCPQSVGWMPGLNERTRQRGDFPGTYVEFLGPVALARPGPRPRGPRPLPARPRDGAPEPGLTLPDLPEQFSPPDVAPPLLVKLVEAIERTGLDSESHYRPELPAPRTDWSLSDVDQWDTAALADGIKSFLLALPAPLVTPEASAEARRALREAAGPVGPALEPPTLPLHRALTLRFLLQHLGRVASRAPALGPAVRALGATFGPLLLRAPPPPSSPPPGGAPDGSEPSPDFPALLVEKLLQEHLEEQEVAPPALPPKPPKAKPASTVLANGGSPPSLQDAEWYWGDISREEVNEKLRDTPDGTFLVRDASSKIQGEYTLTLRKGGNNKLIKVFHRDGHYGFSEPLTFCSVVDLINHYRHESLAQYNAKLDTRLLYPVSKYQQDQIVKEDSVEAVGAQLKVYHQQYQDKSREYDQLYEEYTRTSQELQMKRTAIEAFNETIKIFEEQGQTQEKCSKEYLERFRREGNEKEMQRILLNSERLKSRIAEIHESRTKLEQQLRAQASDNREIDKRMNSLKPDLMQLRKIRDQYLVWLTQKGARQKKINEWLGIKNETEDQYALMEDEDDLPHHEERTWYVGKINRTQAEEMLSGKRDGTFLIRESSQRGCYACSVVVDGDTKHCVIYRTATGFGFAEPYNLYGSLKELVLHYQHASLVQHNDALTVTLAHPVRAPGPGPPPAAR
How it was run: as §2

[4] = Protein PIK3R3-NC, FP saturation binding, mean over replicate hits
[5] = PM assay replicate # 39307, array fabrication # 39286

With `CC(C)C[C@H](NC(=O)[C@H](Cc1ccc(OP(=O)(O)O)cc1)NC(=O)[C@H](CCC(=O)O)NC(=O)[C@H](CCC(=O)O)NC(=O)[C@H](C)NC(=O)[C@@H](N)CC(=O)O)C(=O)N[C@H](C(=O)N1CCC[C@H]1C(=O)N[C@@H](CCC(N)=O)C(=O)N[C@@H](CCC(N)=O)C(=O)NCC(=O)N[C@@H](Cc1ccccc1)C(=O)N[C@@H](CC(=O)O)C(=O)O)C(C)C` [ErbB2 1023 13-mer] (HELM PEPTIDE1{D.A.E.E.[O=C([C@H](Cc1ccc(OP(=O)(O)O)cc1)N[*:1])[*:2]].L.V.P.Q.Q.G.F.D}$$$$V2.0) the Kd [1, 4] was 10.7 µM and the Kd (PTK6 SH2 domain; Protein PTK6, FP saturation binding, mean over replicate hits) was 3.76 µM.

Work on `CC(C)[C@H](NC(=O)[C@H](CC(=O)O)NC(=O)[C@@H]1CCCN1C(=O)[C@H](CCC(N)=O)NC(=O)[C@H](CC(N)=O)NC(=O)[C@@H](NC(=O)[C@H](Cc1ccc(OP(=O)(O)O)cc1)NC(=O)[C@H](CCC(=O)O)NC(=O)[C@@H]1CCCN1C(=O)[C@H](CCC(N)=O)NC(=O)[C@@H]1CCCN1)C(C)C)C(=O)N[C@@H](CCCNC(=N)N)C(=O)N[C@@H](CC(=O)O)C(=O)O` [ErbB2 1139 13-mer] (HELM PEPTIDE1{P.Q.P.E.[O=C([C@H](Cc1ccc(OP(=O)(O)O)cc1)N[*:1])[*:2]].V.N.Q.P.D.V.R.D}$$$$V2.0) yielded a Kd [1, 4] of 5.18 µM.

Compound `CC(C)C[C@H](NC(=O)[C@H](CC(N)=O)NC(=O)[C@@H](N)CC(=O)O)C(=O)N[C@@H](Cc1ccc(O)cc1)C(=O)N[C@@H](Cc1ccc(OP(=O)(O)O)cc1)C(=O)N[C@@H](Cc1c[nH]c2ccccc12)C(=O)N[C@@H](CC(=O)O)C(=O)N[C@@H](CCC(N)=O)C(=O)N[C@@H](CC(=O)O)C(=O)N1CCC[C@H]1C(=O)N1CCC[C@H]1C(=O)N[C@@H](CCC(=O)O)C(=O)N[C@@H](CC(=O)O)C(=O)O` [ErbB2 1222 13-mer] (HELM PEPTIDE1{D.N.L.Y.[O=C([C@H](Cc1ccc(OP(=O)(O)O)cc1)N[*:1])[*:2]].W.D.Q.D.P.P.E.D}$$$$V2.0) has a Kd [1, 4] of 10.3 µM and a Kd (LYN SH2 domain; Protein LYN, FP saturation binding, mean over replicate hits) of 4.18 µM.

In the case of `CC(C)C[C@H](NC(=O)[C@@H]1CCCN1)C(=O)N[C@@H](CCC(N)=O)C(=O)N[C@@H](CCCNC(=N)N)C(=O)N[C@@H](Cc1ccc(OP(=O)(O)O)cc1)C(=O)N[C@@H](CO)C(=O)N[C@@H](CCC(=O)O)C(=O)N[C@@H](CC(=O)O)C(=O)N1CCC[C@H]1C(=O)N[C@H](C(=O)N[C@H](C(=O)N1CCC[C@H]1C(=O)N[C@@H](CC(=O)O)C(=O)O)C(C)C)[C@@H](C)O` [ErbB2 pY1112] (HELM PEPTIDE1{P.L.Q.R.[O=C([C@H](Cc1ccc(OP(=O)(O)O)cc1)N[*:1])[*:2]].S.E.D.P.T.V.P.D}$$$$V2.0), the “Kd” value (SH2 and PTB domains [2]; PM assay replicate # 39331, array fabrication # 39329) is reported as 1.72 µM and the “Kd” value (SH2 and PTB domains [2]; PM assay replicate # 39336, array fabrication # 39329) is reported as 9.67 µM.

For `CC(C)C[C@H](NC(=O)[C@@H]1CCCN1C(=O)[C@H](C)NC(=O)[C@@H](NC(=O)[C@H](Cc1ccc(OP(=O)(O)O)cc1)NC(=O)CNC(=O)[C@H](CC(=O)O)NC(=O)[C@@H](NC(=O)[C@@H](N)CCC(=O)O)[C@@H](C)O)C(C)C)C(=O)N[C@H](C(=O)N[C@@H](CS)C(=O)N[C@@H](CO)C(=O)N[C@@H](CC(=O)O)C(=O)O)[C@@H](C)O` [ErbB2 pY1127], the “Kd” value (SH2 and PTB domains [3]; protein PIK3R2-N, PM assay replicate # 39336, array fabrication # 39329) was 0.04 µM and the “Kd” value (SH2 and PTB domains [3]; protein PIK3R2-N, PM assay replicate # 39337, array fabrication # 39329) was 0.15 µM.

For `CSCC[C@H](NC(=O)[C@H](Cc1ccc(OP(=O)(O)O)cc1)NC(=O)[C@H](CCC(=O)O)NC(=O)[C@H](Cc1ccc(O)cc1)NC(=O)CNC(=O)[C@@H](N)CC(C)C)C(=O)N[C@@H](CC(=O)O)C(=O)N[C@H](C(=O)NCC(=O)N[C@@H](CO)C(=O)N[C@@H](CC(=O)O)C(=O)N[C@@H](CC(C)C)C(=O)N[C@@H](CC(=O)O)C(=O)O)C(C)C` [ErbB3 1224 13-mer] (HELM PEPTIDE1{L.G.Y.E.[O=C([C@H](Cc1ccc(OP(=O)(O)O)cc1)N[*:1])[*:2]].M.D.V.G.S.D.L.D}$$$$V2.0), the Kd (LYN SH2 domain; protein LYN, FP, mean of replicate hits) was 6.86 µM and the Kd (PTK6 SH2 domain; protein PTK6, FP, mean of replicate hits) was 6.58 µM.

In the case of `CSCC[C@H](NC(=O)[C@H](Cc1ccc(OP(=O)(O)O)cc1)NC(=O)CNC(=O)[C@H](CCC(=O)O)NC(=O)[C@H](CCC(=O)O)NC(=O)[C@H](CC(=O)O)NC(=O)[C@H](CC(C)C)NC(=O)[C@H](CCC(=O)O)NC(=O)CNC(=O)[C@H](CCCNC(=N)N)NC(=O)[C@@H]1CCCN1)C(=O)N[C@H](C(=O)N1CCC[C@H]1C(=O)N[C@@H](CCSC)C(=O)N[C@@H](CCCNC(=N)N)C(=O)N[C@@H](CC(=O)O)C(=O)N[C@@H](CCCCN)C(=O)N[C@@H](CC(=O)O)C(=O)O)[C@@H](C)O` [ErbB4 1150 18-mer] (HELM PEPTIDE1{P.R.G.E.L.D.E.E.G.[O=C([C@H](Cc1ccc(OP(=O)(O)O)cc1)N[*:1])[*:2]].M.T.P.M.R.D.K.D}$$$$V2.0), the Kd ([1]; protein PIK3R3-NC, FP, mean of replicate hits) is reported as 2.5 µM.

With `CCN(CC)c1ccc2c(-c3ccc(C(=O)N[C@@H](CC(N)=O)C(=O)NCC(=O)N4CCC[C@H]4C(=O)N4CCC[C@H]4C(=O)N[C@@H](CCCCN)C(=O)N[C@@H](C)C(=O)N[C@@H](CCC(=O)O)C(=O)N[C@@H](CC(=O)O)C(=O)N[C@@H](CCC(=O)O)C(=O)N[C@@H](Cc4ccc(OP(=O)(O)O)cc4)C(=O)N[C@H](C(=O)N[C@@H](CC(N)=O)C(=O)N[C@@H](CCC(=O)O)C(=O)N4CCC[C@H]4C(=O)N[C@@H](CC(C)C)C(=O)N[C@@H](Cc4ccc(O)cc4)C(=O)N[C@@H](CC(C)C)C(=O)N[C@@H](CC(=O)O)C(=O)O)C(C)C)cc3C(=O)[O-])c3ccc(=[N+](CC)CC)cc-3oc2c1` [ErbB4 1202 (18-mer)] (HELM PEPTIDE1{[CCN(CC)c1ccc2c(-c3ccc(C(=O)[*:2])cc3C(=O)[O-])c3ccc(=[N+](CC)CC)cc-3oc2c1].N.G.P.P.K.A.E.D.E.[O=C([C@H](Cc1ccc(OP(=O)(O)O)cc1)N[*:1])[*:2]].V.N.E.P.L.Y.L.D}$$$$V2.0) the “Kd” value (SH2 and PTB domains [3]; protein PIK3R2-NC, PM assay replicate # 39337, array fabrication # 39329) was 0.65 µM and the “Kd” value (SH2 and PTB domains [2]; [5]) was 30.90 µM.

`CC(C)C[C@H](NC(=O)[C@H](Cc1ccc(OP(=O)(O)O)cc1)NC(=O)[C@H](CC(C)C)NC(=O)[C@@H]1CCCN1C(=O)[C@H](CCC(=O)O)NC(=O)[C@H](CC(N)=O)NC(=O)[C@@H](NC(=O)[C@H](Cc1ccc(O)cc1)NC(=O)[C@H](CCC(=O)O)NC(=O)[C@H](CC(=O)O)NC(=O)[C@@H](N)CCC(=O)O)C(C)C)C(=O)N[C@@H](CC(N)=O)C(=O)N[C@H](C(=O)N[C@@H](Cc1ccccc1)C(=O)N[C@@H](C)C(=O)N[C@@H](CC(N)=O)C(=O)N[C@H](C(=O)N[C@@H](CC(=O)O)C(=O)O)[C@@H](C)O)[C@@H](C)O` [ErbB4 1208 18-mer] (HELM PEPTIDE1{E.D.E.Y.V.N.E.P.L.[O=C([C@H](Cc1ccc(OP(=O)(O)O)cc1)N[*:1])[*:2]].L.N.T.F.A.N.T.D}$$$$V2.0) showed a Kd ([1]; protein PIK3R3-NC, mean of replicate hits) of 3.02 µM, a Kd (LYN SH2 domain; protein LYN, mean of replicate hits) of 5.15 µM and a Kd (PTK6 SH2 domain; protein PTK6, mean of replicate hits) of 15.5 µM.

With `CC[C@H](C)[C@H](NC(=O)[C@H](CC(N)=O)NC(=O)[C@H](CC(N)=O)NC(=O)[C@H](CCCCN)NC(=O)[C@H](CC(C)C)NC(=O)[C@H](Cc1ccc(OP(=O)(O)O)cc1)NC(=O)[C@H](CCC(=O)O)NC(=O)[C@H](C)NC(=O)[C@H](CCCCN)NC(=O)CNC(=O)[C@H](CC(C)C)NC(=O)[C@@H](NC(=O)[C@H](CC(N)=O)NC(=O)[C@H](C)NC(=O)[C@@H](N)Cc1ccccc1)[C@@H](C)O)C(=O)N[C@@H](CC(C)C)C(=O)N[C@@H](CO)C(=O)N[C@@H](CC(=O)O)C(=O)O` [ErbB4 pY1221 (18-mer)] (HELM PEPTIDE1{F.A.N.T.L.G.K.A.E.[O=C([C@H](Cc1ccc(OP(=O)(O)O)cc1)N[*:1])[*:2]].L.K.N.N.I.L.S.D}$$$$V2.0) the “Kd” value (SH2 and PTB domains [3]; protein PIK3R2-NC, PM assay replicate # 39307, array fabrication # 39286) was 1.34 µM and the “Kd” value (SH2 and PTB domains [2]; [5]) was 0.77 µM.
